The values that follow come from patent US20230381170A1, “METHOD FOR TREATING ALS/FTD THROUGH DEGRADATION OF RNA REPEAT EXPANSION” (University of Florida Research Foundation, Incorporated, priority 2020, published 2023).

In assay [1] the test system is C9orf72 exon 1b transcripts lacking r(G4C2)exp. The assay is described as follows: C9orf72 exon 1b RT-qPCR in patient-derived LCLs. The format is cell-based, human. The conditions noted are these: any concentration. The procedure: (§1) Measuring Levels of C9orf72 and C9orf72 Variants by RT-qPCR. LCLs were seeded in 6-well plate (˜10^6 cells in 2 mL of growth medium) and incubated overnight at 37° C. Cells were then treated with various concentrations of compound for 24 h or with G4C2-ASO and Control-ASO (100 nM), delivered by transfection with Lipofectamine RNAiMax. RNA was extracted as described above and the expression of C9orf72 variants was determined by RT-qPCR. […] For compound treatment well, medium change was performed with fresh compound every 3-4 days. RNA was extracted as described above and the expression of C9orf72 variants was determined by RT-qPCR.
(In qPCR the cycle at which signal appears reflects the starting amount.)

In assay [2] the test system is transcriptome of iPSCs derived from healthy donors. In words: RNA-seq in iPSCs from healthy donors. The class given is cell-based, human. The following applies: 50 nM.
The subject of the next assay is C9orf72 transcripts. In words: C9orf72 variants by RT-qPCR in brain of +/+PWR500 C9orf72 BAC mice. The format is in vivo, mouse. The following applies: three weeks. The procedure:
Therapeutic Efficacy in a c9ALS/FD mouse model. All animal studies were completed as approved by the Scripps Florida Institutional Animal Care and Use Committee. A total of 24 mice (12+/+PWR500 [7 Male and 5 Female] and 12 WT [6 Male and 6 Female]) mice, age- and gender-matched and ranging in age from 18-22 weeks old were used in therapeutic efficacy studies (Table 6). Mice were anesthetized by intraperitoneal (i.p.) injection of 10 mg/mL Ketamine:1 mg/mL Xylazine solution. Intracerebroventricular (ICV) stereotactic injections of 10 μL of 7 (33 nmol) were administered into the right ventricle using the following coordinates: 0.2 mm posterior and 1.0 mm lateral to the right from the bregma and 3 mm deep. Mice were treated with 7 or vehicle consisting of 1% DMSO in Saline. Three weeks post-treatment, mice were euthanized, and tissue was harvested for study.
Measuring C9orf72 Variants by RT-qPCR. Postmortem brain tissue was harvested and sliced along the midline. The left hemisphere was frozen for RNA and protein analysis. The left hemisphere of each brain was homogenized in 300 μL ice cold Tris-EDTA buffer with 2× protease inhibitors. 150 μL of homogenized tissue was used for RNA extraction. 450 μL of triazol LS was added to the homogenized tissue and centrifuged for 15 min at 16,000 rpm. Following centrifugation, supernatant was collected and an equal volume (600 μL) of 100% ethanol was added and mixed thoroughly. RNA was purified using a Direct-zol RNA Kit (Zymo Research) per the manufacturer's protocol. RT-qPCR was performed as described above. Expression levels of mRNAs were normalized to mouse (3-actin. See Table 2 for a list of primers. Statistical analysis was measured using an unpaired t-test with Welch's correction.

In another assay the test system is C9orf72 intron 1. The assay is described as follows: C9orf72 intron 1 RT-qPCR in iPSC lines from healthy donors. The class given is cell-based, human. The protocol: iPSCs were treated for 4 days in Matrigel (356234, Corning) coated plates with mTeSR™1 feeder-free medium ([…] Technologies; Catalog #85850). Cells were treated in 6-well plates on day 1 and 3 with compounds diluted in 0.1% final DMSO.
Measuring Levels of C9orf72 and C9orf72 Variants by RT-qPCR. LCLs were seeded in 6-well plate (˜10^6 cells in 2 mL of growth medium) and incubated overnight at 37° C. Cells were then treated with various concentrations of compound for 24 h or with G4C2-ASO and Control-ASO (100 nM), delivered by transfection with Lipofectamine RNAiMax. RNA was extracted as described above and the expression of C9orf72 variants was determined by RT-qPCR. For iPSC and iPSC-derived motor neuron cell line, the cells were seeded into Matrigel-coated 6-well plate to ˜60% confluence before treated with 3 μM C9orf72-ASO or Control-ASO and various concentrations of compound for 1 to 2 weeks. For compound treatment well, medium change was performed with fresh compound every 3-4 days. RNA was extracted as described above and the expression of C9orf72 variants was determined by RT-qPCR.

For assay [3], the system named is C9orf72 intron 1 harboring r(G4C2)exp. In words: C9orf72 intron 1 RT-qPCR in patient-derived LCLs. The class given is cell-based, human. The conditions noted are these: disease-affected LCLs. The protocol:
as §1

In the next assay the test system is (G4C2)66-No ATG-GFP mRNA. The assay is described as follows: Polysome profiling in HEK293T cells. The following applies: 200 nM. The class given is cell-based, human. The protocol: Polysome Profiling. Polysome profiling studies were completed similarly to previously described methods (12, 30) Yang et al., 2015). Briefly, 100 mm dishes were plated with ˜3.5×10^6 HEK293T cells and batch-transfected for 5 h with 2.5 μg (G4C2)66-No ATG-GFP using Lipofectamine 3000 reagent according to manufacturer protocol. Then, cells were collected and plated overnight in 100 mm dishes with ˜2.5×10^6 HEK293T cells and treated with vehicle (DMSO, 0.5% final concentration) or 3 (200 nM). Upon 24 h treatment, cells were treated with cycloheximide (CHX, 0.1 mg/mL) and incubated for 5 min at 37° C. The medium was removed, and cells were washed by 2×7.5 mL ice cold DPBS supplemented with 0.1 mg/mL CHX. Cells were then lysed with 250 μL of ice-cold Cell Lysis Buffer [10 mM NaCl, 10 mM MgCl2, 10 mM Tris, pH 7.5, 1% Triton X-100, 1% sodium deoxycholate, 1 mM DTT supplemented with […] cycloheximide, and 0.2 U/μL RNAsin (Promega)]. The lysate obtained from 3×100 mm dishes were combined (˜500 μL final volume) and transferred to an Eppendorf tube, passed through a 21G needle several times and centrifuged for 5 min at 13,200 rpm and 4° C. The supernatant was transferred to a new tube and stored at −80° C. until further use. Cell lysates were then loaded on 10-50% sucrose gradients (prepared in 20 mM HEPES, pH 7.4, 100 mM KCl, 5 mM MgCl2, 3 mM DTT, and 0.1 mg/mL CHX) and separated at 40000 rpm for 2 h at 4° C. […] The levels of (G4C2)66-No ATG-GFP mRNA in each fraction were measured by qPCR as described above with primers specific for GFP (non-canonical translation), GAPDH, respectively (canonical translation) (Table 1). Data from vehicle- and compound-treated samples were normalized as follows: triplicate Ct values were averaged and ΔCt values were calculated; ΔΔCt values were afforded by comparing treated to untreated ΔCt values. […]

Regarding `CCOC(=O)C1=C(Nc2ccccc2)S/C(=C\c2ccc(OCCOCCOCCOCCNC(=O)CCC(=O)N(CCOCCOCCOc3ccc4[nH]c5c(C)c6ccncc6c(C)c5c4c3)CCOCCOCCOc3ccc4[nH]c5c(C)c6ccncc6c(C)c5c4c3)c(O)c2)C1=O` [Compound 7], the “C9orf72 transcripts that lack r(G4C2)exp (exon 1b)” value in assay [1] was “no decrease”. Besides, in assay [2], the “changes in the transcriptome” value was “no changes”. In the assay with C9orf72 transcripts (33 nmol ICV), the “C9orf72 exon 1b RNA levels” value is listed as “not altered” and the “all C9orf72 transcripts (exon 2-exon 3 junction)” value is “reduced”. Moreover, the “reduction of r(G4C2)exp-containing intron 1 mRNA” value in the assay on C9orf72 transcripts (33 nmol single ICV injection, compared to vehicle) turned out to be 44±22%. The “C9orf72 intron 1 levels” value with C9orf72 intron 1 is given as “no effect”.

In the case of `Cc1c2ccncc2c(C)c2c1[nH]c1ccc(OCCOCCOCCNCCOCCOCCOc3ccc4[nH]c5c(C)c6ccncc6c(C)c5c4c3)cc12` [Compound 3], the “C9orf72 intron 1 levels” value in assay [3] is recorded as “no effect”. For the same molecule, in the assay on (G4C2)66-No ATG-GFP mRNA, the “increase of transcript abundance in low-molecular-weight (LMW) fractions” value is 17±1%, the “polysome loading of GAPDH (control transcript)” value is reported as “no effect” and the “reduction of transcript loaded into high-molecular-weight (HMW) polysome fractions” value was found to be 22±2%.
